Data from US20250099033A1, “HIGH THROUGHPUT SCREENING METHOD FOR THE IDENTIFICATION OF PS[…]” (FRIEDRICH MIESCHER INSTITUTE FOR BIOMEDICAL RESEARCH, priority 2022, published 2025).
“Also recorded” adds a separate entry of the source.

System: Tlx3 positive layer 5 IT neurons
Assay: Widefield calcium imaging of dorsal cortex in Tlx3-Cre x Ai148 mice (GCaMP6 in layer 5 IT neurons), before and after drug injection
Assay type: in vivo
Conditions: for long-range activity correlations (drug induced difference, normalized to naïve): region pairs above 0.9 of the bregma-lambda distance; for Pearson's correlation of activity between cortical regions (all region pairs): single injection, after vs naïve
Text: All animal procedures were approved by and carried out in accordance with guidelines of the Veterinary Department of the Canton Basel-Stadt, Switzerland. The mice used in this study were kept on a C57BL/6 background and were of the following genotype: 6 C57/Bl6 (Charles River Laboratories), 4 Emx1-Cre mice (Gorski et al., 2002), 4 Cux2-CreERT2 (Franco et al., 2012), 7 Scnn1a-Cre (Madisen et al., 2010), 15 Tlx3-Cre(PL56) (Gerfen et al., 2013), 3 Ntsr1-Cre (Gong et al., 2007), 2 PV-Cre (Hippenmeyer et al., 2005), 6 VIP-Cre (Taniguchi et al., 2011), 5 Sst-Cre (Taniguchi et al., 2011) were used for widefield calcium imaging. Ai148 ((Daigle et al., 2018), Jackson Laboratories, stock #030328) mice were used as breeders to drive GCaMP6f in Cre positive neurons. 7 C57BL/6 were used for experiments controlling for hemodynamic responses. To induce expression of Cre in the Cux2-CreERT2 line, mice were kept for at least 1 week on Tamoxifen containing food (Envigo, 400 mg Tamoxifen per kg of food) as their only food source. Mice were group housed in a vivarium (light/dark cycle: 12/12 hours). Experimental mice used were of both sexes.
For all surgical procedures, mice were anesthetized using a mixture of Fentanyl (0.05 mg/kg; Actavis), Midazolam (5.0 mg/kg; Dormicum, Roche) and Medetomidine (0.5 mg/kg; Domitor, Orion). In a subset of mice (6 C57/Bl6, 4 Emx1-Cre, 4 Sst-Cre mice) we injected an AAV coated with the PHP.eb capsid (Chan et al., 2017) retroorbitally ([…] each eye of at least 10^13 GC/ml) to drive expression pan-neuronally or cell type specificly of GCaMP6 under either the Ef1α or hSyn promoter. For hemodynamic response control experiments, the inventors used an AAV PHP.eb Ef1α-GFP to pan-neuronally transfect GFP. To improve optical access to the cortex, they implanted crystal skull cranial windows (Kim et al., 2016). Prior to removing the skull plate overlying dorsal cortex, they zeroed bregma with a digital readout attached to the stereotax for later use as a landmark. Superglue (Pattex) was used to close the craniotomy. […] A custom-machined titanium head bar was attached to the skull using dental cement (Paladur, Heraeus). An epifluorescence overview image was taken to mark reference points on the dorsal cortical surface. Anesthesia was antagonized by an intraperitoneal injection of a mixture of Flumazenil (0.5 mg/kg; Anexate, Roche) and Atipamezole (2.5 mg/kg; Antisedan, Orion Pharma), analgesia was achieved by injecting Buprenorphine (0.1 mg/kg; Reckitt Benckiser Healthcare (UK) Ltd.) and Metacam (5 mg/kg; Boehringer Ingelheim), and mice were subsequently returned to their home cage. Imaging commenced not before 1 week after headbar implantation and not before at least 3 weeks had passed in the cases in which AAVs had been used to transfect neurons. Clozapine (Sigma), Aripiprazole (Otsuka Pharmaceutical), Haloperidol (Janssen) and Amphetamine (Hänseler) were intraperitoneally injected at […] body weight, respectively.
For all experiments we used a virtual reality setup as previously described (Leinweber et al., 2014). Mice were head-fixed and free to run on a spherical, air supported Styrofoam ball. Rotation of the ball was coupled to movement in a virtual reality environment. A virtual corridor was projected (Samsung SP-F10M) onto a toroidal screen positioned in front of the mice covering approximately 240 degrees horizontally and 100 degrees vertically of the field of view. […]

Row | Compound | long-range activity correlations (drug induced difference, normalized to naïve) | short-range activity correlations (drug induced difference, normalized to naïve) (region pairs below 0.9 of the bregma-lambda distance) | Pearson's correlation of activity between cortical regions (all region pairs)
1 | O=C1CCc2ccc(OCCCCN3CCN(c4cccc(Cl)c4Cl)CC3)cc2N1 [Aripiprazole] | significantly reduced | significantly reduced | mimicked the decorrelation of dorsal cortex activity observed with Clozapine; also recorded: decorrelation of the activity patterns of Tlx3 positive layer 5 IT neurons was preserved
2 | CC(N)Cc1ccccc1 (stereo not drawn) [Amphetamine] |  |  | did not affect activity correlations; also recorded: absent
3 | O=C(CCCN1CCC(O)(c2ccc(Cl)cc2)CC1)c1ccc(F)cc1 [Haloperidol] | reduced long-range activity correlations |  | mimicked the decorrelation of dorsal cortex activity observed with Clozapine; also recorded: decorrelation of the activity patterns of Tlx3 positive layer 5 IT neurons was preserved
